Tested on: MDA-MB-468 spheroids with HUVEC/MSC, viability
Experiment: Anticancer human tumor MDA-MB-468 cell line growth inhibition [PI3K];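 note: spheroids exposed to agents for seven days before readout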;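 for viability, T/C: 100% = DMSO vehicle control viability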
Conditions: for IC50: curve of first compound; for viability, T/C: stronger effect = lower value
Procedure, shortened: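 Multi-cell spheroids combine tumor cells with HUVEC and human MSCs, treated with targeted agents alone or with inavolisib, alpelisib, duvelisib or copanlisib. Concentrations fall in half-log steps from at or near clinical Cmax, or from 10 microM where Cmax is unknown; viability read-out.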

[1] = second compound 0.0316 µM, first compound 0.0316 µM
[2] = second compound 0.0316 µM, first compound 0.1 µM
[3] = second compound 0.0316 µM, first compound 0.316 µM
[4] = second compound 0.0316 µM, first compound 1 µM
[5] = second compound 0.0316 µM, first compound 3.16 µM
[6] = second compound 0.0316 µM, first compound 10 µM
[7] = second compound 0.1 µM, first compound 0.0316 µM
[8] = second compound 0.1 µM, first compound 0.1 µM
[9] = second compound 0.1 µM, first compound 0.316 µM
[10] = second compound 0.1 µM, first compound 1 µM
[11] = second compound 0.1 µM, first compound 3.16 µM
[12] = second compound 0.1 µM, first compound 10 µM
[13] = second compound 0.316 µM, first compound 0.0316 µM
[14] = second compound 0.316 µM, first compound 0.1 µM
[15] = second compound 0.316 µM, first compound 0.316 µM
[16] = second compound 0.316 µM, first compound 1 µM
[17] = second compound 0.316 µM, first compound 3.16 µM
[18] = second compound 0.316 µM, first compound 10 µM
[19] = second compound 1 µM, first compound 0.0316 µM
[20] = second compound 1 µM, first compound 0.1 µM
[21] = second compound 1 µM, first compound 0.316 µM
[22] = second compound 1 µM, first compound 1 µM
[23] = second compound 1 µM, first compound 3.16 µM
[24] = second compound 1 µM, first compound 10 µM

`CC1(C)CCC(Nc2ncc(C(F)(F)F)c(-c3c[nH]c4c(P(C)(C)=O)c(C#N)ccc34)n2)CN1` (stereo unspecified) + CC(Nc1ccc2c(c1)OCCn1cc(N3C(=O)OCC3C(F)F)nc1-2)C(N)=O showed an IC50 (second compound 0.00316 µM) of less than 0.0316 µM, an IC50 (second compound 0.01 µM) of less than 0.0316 µM and an IC50 (second compound 0.0316 µM) of less than 0.0316 µM. For the same compound, the IC50 (second compound 0.1 µM) was less than 0.0316 µM, the IC50 (second compound 0.316 µM) was less than 0.0316 µM and the IC50 (second compound 1 µM) was less than 0.0316 µM. It also gave a viability, T/C (second compound 0.00316 µM, first compound 0.0316 µM) of 9.78%, a viability, T/C (second compound 0.00316 µM, first compound 0.1 µM) of 9.47% and a viability, T/C (second compound 0.00316 µM, first compound 0.316 µM) of 9.65%. The viability, T/C (second compound 0.00316 µM, first compound 1 µM) was 8.55%, the viability, T/C (second compound 0.00316 µM, first compound 3.16 µM) was 8.68% and the viability, T/C (second compound 0.00316 µM, first compound 10 µM) was 1.56%. The viability, T/C (second compound 0.01 µM, first compound 0.0316 µM) was 10.6%, the viability, T/C (second compound 0.01 µM, first compound 0.1 µM) was 11.4% and the viability, T/C (second compound 0.01 µM, first compound 0.316 µM) was 9.42%. For the same compound, the viability, T/C (second compound 0.01 µM, first compound 1 µM) was 8.7%, the viability, T/C (second compound 0.01 µM, first compound 3.16 µM) was 7.16% and the viability, T/C (second compound 0.01 µM, first compound 10 µM) was 2.11%. The viability, T/C [1] was 11.1%, the viability, T/C [2] was 9.59% and the viability, T/C [3] was 7.86%. For the same compound, the viability, T/C [4] was 8.01%, the viability, T/C [5] was 7.19% and the viability, T/C [6] was 1.24%. The viability, T/C [7] was 11.6%, the viability, T/C [8] was 10% and the viability, T/C [9] was 9.28%. For the same compound, the viability, T/C [10] was 8.9%, the viability, T/C [11] was 7.73% and the viability, T/C [12] was 1.12%. It also gave a viability, T/C [13] of 11.5%, a viability, T/C [14] of 9.36% and a viability, T/C [15] of 8.28%. For the same compound, the viability, T/C [16] was 8.77%, the viability, T/C [17] was 6.8% and the viability, T/C [18] was 1.12%. It also gave a viability, T/C [19] of 11.7%, a viability, T/C [20] of 9% and a viability, T/C [21] of 8.85%. It also gave a viability, T/C [22] of 10.9%, a viability, T/C [23] of 5.99% and a viability, T/C [24] of 1.09%.
In the case of `CNC(=O)c1ccc(N2C(=S)N(c3ccc(C#N)c(C(F)(F)F)c3)C(=O)C2(C)C)cc1F` + CC(Nc1ncnc2nc[nH]c12)c1cc2cccc(Cl)c2c(=O)n1-c1ccccc1, the IC50 (second compound 0.0316 µM) is reported as greater than 10 µM, the IC50 (second compound 0.1 µM) is reported as greater than 10 µM and the IC50 (second compound 0.316 µM) is reported as greater than 10 µM. It also gave an IC50 (second compound 1 µM) greater than 10 µM, an IC50 (second compound 3.16 µM) of 7.73 µM and an IC50 (second compound 10 µM) of less than 0.0316 µM. For the same compound, the viability, T/C [1] was 78.9%, the viability, T/C [2] was 80% and the viability, T/C [3] was 77.2%. The viability, T/C [4] was 90.6%, the viability, T/C [5] was 89.7% and the viability, T/C [6] was 73.1%. For the same compound, the viability, T/C [7] was 88%, the viability, T/C [8] was 79.8% and the viability, T/C [9] was 73.4%. It also gave a viability, T/C [10] of 91.3%, a viability, T/C [11] of 81.1% and a viability, T/C [12] of 63.4%. For the same compound, the viability, T/C [13] was 72%, the viability, T/C [14] was 72.5% and the viability, T/C [15] was 71.5%. For the same compound, the viability, T/C [16] was 77%, the viability, T/C [17] was 70.7% and the viability, T/C [18] was 61.1%. It also gave a viability, T/C [19] of 58.2%, a viability, T/C [20] of 64.5% and a viability, T/C [21] of 67.4%. For the same compound, the viability, T/C [22] was 75%, the viability, T/C [23] was 55.5% and the viability, T/C [24] was 56.3%. The viability, T/C (second compound 3.16 µM, first compound 0.0316 µM) was 52.6%, the viability, T/C (second compound 3.16 µM, first compound 0.1 µM) was 56.3% and the viability, T/C (second compound 3.16 µM, first compound 0.316 µM) was 53.4%. For the same compound, the viability, T/C (second compound 3.16 µM, first compound 1 µM) was 57.1%, the viability, T/C (second compound 3.16 µM, first compound 3.16 µM) was 56.8% and the viability, T/C (second compound 3.16 µM, first compound 10 µM) was 42.1%. It also gave a viability, T/C (second compound 10 µM, first compound 0.0316 µM) of 40.1%, a viability, T/C (second compound 10 µM, first compound 0.1 µM) of 35.8% and a viability, T/C (second compound 10 µM, first compound 0.316 µM) of 36.1%. It also gave a viability, T/C (second compound 10 µM, first compound 1 µM) of 38%, a viability, T/C (second compound 10 µM, first compound 3.16 µM) of 35.7% and a viability, T/C (second compound 10 µM, first compound 10 µM) of 26.9%.
`Cn1cnc2c(F)c(Nc3ccc(Br)cc3Cl)c(C(=O)NOCCO)cc21` + CC(Nc1ncnc2nc[nH]c12)c1cc2cccc(Cl)c2c(=O)n1-c1ccccc1 was tested, and the IC50 (second compound 0.0316 µM) was greater than 3 µM, the IC50 (second compound 0.1 µM) was greater than 3 µM and the IC50 (second compound 0.316 µM) was greater than 3 µM. For the same compound, the IC50 (second compound 1 µM) was greater than 3 µM, the IC50 (second compound 3.16 µM) was 1.96 µM and the IC50 (second compound 10 µM) was less than 0.00949 µM. The viability, T/C (second compound 0.0316 µM, first compound 0.00949 µM) was 88.8%, the viability, T/C (second compound 0.0316 µM, first compound 0.03 µM) was 90% and the viability, T/C (second compound 0.0316 µM, first compound 0.0949 µM) was 82.5%. For the same compound, the viability, T/C (second compound 0.0316 µM, first compound 0.3 µM) was 92.8%, the viability, T/C (second compound 0.0316 µM, first compound 0.949 µM) was 81.8% and the viability, T/C (second compound 0.0316 µM, first compound 3 µM) was 57.5%. It also gave a viability, T/C (second compound 0.1 µM, first compound 0.00949 µM) of 77%, a viability, T/C (second compound 0.1 µM, first compound 0.03 µM) of 86.9% and a viability, T/C (second compound 0.1 µM, first compound 0.0949 µM) of 101%. For the same compound, the viability, T/C (second compound 0.1 µM, first compound 0.3 µM) was 89.1%, the viability, T/C (second compound 0.1 µM, first compound 0.949 µM) was 86.1% and the viability, T/C (second compound 0.1 µM, first compound 3 µM) was 58.4%. The viability, T/C (second compound 0.316 µM, first compound 0.00949 µM) was 85.2%, the viability, T/C (second compound 0.316 µM, first compound 0.03 µM) was 83.8% and the viability, T/C (second compound 0.316 µM, first compound 0.0949 µM) was 75.6%. The viability, T/C (second compound 0.316 µM, first compound 0.3 µM) was 92.5%, the viability, T/C (second compound 0.316 µM, first compound 0.949 µM) was 90.3% and the viability, T/C (second compound 0.316 µM, first compound 3 µM) was 60.7%. For the same compound, the viability, T/C (second compound 1 µM, first compound 0.00949 µM) was 63.4%, the viability, T/C (second compound 1 µM, first compound 0.03 µM) was 66.1% and the viability, T/C (second compound 1 µM, first compound 0.0949 µM) was 76%. For the same compound, the viability, T/C (second compound 1 µM, first compound 0.3 µM) was 73.9%, the viability, T/C (second compound 1 µM, first compound 0.949 µM) was 67.6% and the viability, T/C (second compound 1 µM, first compound 3 µM) was 58.8%. It also gave a viability, T/C (second compound 3.16 µM, first compound 0.00949 µM) of 58.2%, a viability, T/C (second compound 3.16 µM, first compound 0.03 µM) of 58.5% and a viability, T/C (second compound 3.16 µM, first compound 0.0949 µM) of 55.8%. The viability, T/C (second compound 3.16 µM, first compound 0.3 µM) was 54.3%, the viability, T/C (second compound 3.16 µM, first compound 0.949 µM) was 66% and the viability, T/C (second compound 3.16 µM, first compound 3 µM) was 37.2%. For the same compound, the viability, T/C (second compound 10 µM, first compound 0.00949 µM) was 43.3%, the viability, T/C (second compound 10 µM, first compound 0.03 µM) was 41.2% and the viability, T/C (second compound 10 µM, first compound 0.0949 µM) was 37.6%. For the same compound, the viability, T/C (second compound 10 µM, first compound 0.3 µM) was 35.6%, the viability, T/C (second compound 10 µM, first compound 0.949 µM) was 29.4% and the viability, T/C (second compound 10 µM, first compound 3 µM) was 16.4%.
